In brackets after ≈: the same amount, converted by molar mass. Entries after “also recorded” stand apart in the source; their conditions may differ. Marks after values point to notes of the source that are not given here.
Experiments:
[1] = biological target: TLR4 (Homo sapiens, UniProt O00206+Q9Y6Y9); assay: TLR4 NF-κB SEAP reporter assay in HEK-Blue hTLR4 cells
[2] = tested on: human PBMCs; conditions: 1 μM, 18 h
[3] = Kinetic solubility in PBS (HPLC solubility assay); conditions: PBS, aqueous buffer, kinetic from dmso stock
[4] = biological target: NOD2 (Homo sapiens, UniProt Q9HC29); assay: NOD2 NF-κB SEAP reporter assay in HEK-Blue hNOD2 cells
[5] = design: method as in previously reported; conditions: ref previously reported; cited from earlier work
[6] = design: method as in previous studies; conditions: kinetic solubility; ref previous studies; cited from earlier work
[7] = 10 μM, 18 h, NF-κB transcriptional activity (SEAP) relative to 0.1% DMSO
[8] = Solubility sample 1, Tables S1–S3, replicate 1
[9] = Solubility sample 2, Tables S1–S3, replicate 2
[10] = solubility in PBS, kinetic solubility, HPLC solubility assay

Sequence of NOD2 (Q9HC29 whole entry): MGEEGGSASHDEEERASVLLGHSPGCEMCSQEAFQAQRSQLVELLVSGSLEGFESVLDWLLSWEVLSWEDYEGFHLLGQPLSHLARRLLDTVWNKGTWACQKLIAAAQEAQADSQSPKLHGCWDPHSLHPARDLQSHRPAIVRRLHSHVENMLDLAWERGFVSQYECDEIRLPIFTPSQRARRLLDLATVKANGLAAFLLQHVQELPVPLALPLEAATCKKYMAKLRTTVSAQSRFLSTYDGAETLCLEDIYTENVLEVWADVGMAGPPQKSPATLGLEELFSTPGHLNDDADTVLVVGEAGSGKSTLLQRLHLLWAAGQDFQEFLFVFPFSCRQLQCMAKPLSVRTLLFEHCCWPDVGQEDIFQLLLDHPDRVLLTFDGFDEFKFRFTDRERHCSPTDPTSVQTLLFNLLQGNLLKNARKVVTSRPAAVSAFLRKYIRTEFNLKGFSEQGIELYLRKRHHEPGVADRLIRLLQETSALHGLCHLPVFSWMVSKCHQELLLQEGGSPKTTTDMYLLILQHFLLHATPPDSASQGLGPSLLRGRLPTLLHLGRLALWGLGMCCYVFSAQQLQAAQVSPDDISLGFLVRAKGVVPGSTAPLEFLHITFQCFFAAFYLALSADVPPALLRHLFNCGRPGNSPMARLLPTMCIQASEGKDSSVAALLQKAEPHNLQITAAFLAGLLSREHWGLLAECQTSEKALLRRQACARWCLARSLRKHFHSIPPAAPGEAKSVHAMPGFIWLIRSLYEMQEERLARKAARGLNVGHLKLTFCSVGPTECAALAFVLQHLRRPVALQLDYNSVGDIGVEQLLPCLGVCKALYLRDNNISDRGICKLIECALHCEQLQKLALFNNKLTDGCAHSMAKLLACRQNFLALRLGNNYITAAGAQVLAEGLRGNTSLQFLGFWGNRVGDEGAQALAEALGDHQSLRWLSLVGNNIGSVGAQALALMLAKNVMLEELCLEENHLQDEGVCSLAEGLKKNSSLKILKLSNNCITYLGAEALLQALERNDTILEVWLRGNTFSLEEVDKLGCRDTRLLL
Sequence of TLR4 (O00206 24-839): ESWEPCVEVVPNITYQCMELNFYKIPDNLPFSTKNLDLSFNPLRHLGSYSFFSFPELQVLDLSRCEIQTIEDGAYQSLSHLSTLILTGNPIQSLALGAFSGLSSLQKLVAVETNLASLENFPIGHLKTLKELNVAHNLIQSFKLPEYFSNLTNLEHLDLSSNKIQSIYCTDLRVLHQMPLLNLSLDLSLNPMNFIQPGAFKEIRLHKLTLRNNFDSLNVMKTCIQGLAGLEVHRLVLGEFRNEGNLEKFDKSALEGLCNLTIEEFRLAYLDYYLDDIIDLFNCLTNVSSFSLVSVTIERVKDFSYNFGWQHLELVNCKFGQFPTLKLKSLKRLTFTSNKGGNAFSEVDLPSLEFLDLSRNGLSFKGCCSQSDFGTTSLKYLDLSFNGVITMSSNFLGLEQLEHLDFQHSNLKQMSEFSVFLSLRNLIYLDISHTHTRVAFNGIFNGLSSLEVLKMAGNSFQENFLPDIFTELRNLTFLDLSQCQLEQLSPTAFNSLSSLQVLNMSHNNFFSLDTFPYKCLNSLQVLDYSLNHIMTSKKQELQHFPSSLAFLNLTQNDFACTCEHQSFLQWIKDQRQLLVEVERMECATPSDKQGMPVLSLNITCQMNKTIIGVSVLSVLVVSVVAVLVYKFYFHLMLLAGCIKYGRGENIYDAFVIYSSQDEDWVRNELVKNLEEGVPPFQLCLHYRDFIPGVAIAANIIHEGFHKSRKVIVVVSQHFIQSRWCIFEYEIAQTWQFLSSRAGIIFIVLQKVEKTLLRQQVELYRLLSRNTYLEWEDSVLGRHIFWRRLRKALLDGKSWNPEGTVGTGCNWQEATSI
Sequence of TLR4 (Q9Y6Y9 17-160 limits assumed): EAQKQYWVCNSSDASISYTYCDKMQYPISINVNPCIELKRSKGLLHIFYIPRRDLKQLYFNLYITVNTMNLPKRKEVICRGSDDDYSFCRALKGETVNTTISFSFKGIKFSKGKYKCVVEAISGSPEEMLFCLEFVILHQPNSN

NOD2 activation, fold increase ([4]; 2 μM, 18 h, NF-κB transcriptional activity (SEAP) relative to 0.1% DMSO) | Compound | TLR4 activation at 10 μM, fold increase [1, 7] | maximum TLR4 activation ([1]; HEK-Blue hTLR4, 21 at 10 μM) | concentration at which compound activated TLR4 ([1]; dose-response 0.5–10 μM (17–21) or 1–100 μM (27–31)) | overall cytokine production [2] | production of IL-6, IL-10, TNF-α, and IFN-γ [2] | solubility [3, 8] | solubility [3, 9] | solubility [3, 10] | NOD2 activation at 10 μM, fold increase [4, 7] | NOD2 agonist activity ([4]; compared with NOD2 agonist 3 and MDP (4 μM)) | immunostimulatory activity [5] | solubility in PBS [6]
– | CCOC(=O)[C@@H](CCC(=O)N1CCC(CN2CCN(C(=O)Cc3ccc(C(C(=O)NC4CCCC4)N(C(=O)c4cc(-c5ccccc5)n(-c5ccccc5)n4)c4ccc5c(c4)CCC5)cc3)CC2)CC1)NC(=O)[C@@H](NC(=O)CNC(=O)/C=C/c1ccc(O)c(OC)c1)C(C)C (stereo partly drawn) [Compound 21, Ethyl (2R)-5-(4-((4-(2-(4-(2-(Cyclopentylamino)-1-(N-(2,3-dihydro-1H-inden-5-yl)-1,5-diphenyl-1H-pyrazole-3-carboxamido)-2-oxoethyl)phenyl)acetyl)piperazin-1-yl)methyl)piperidin-1-yl)-2-((S)-2-(2-((E)-3-(4-hydroxy-3-methoxyphenyl)acrylamido)acetamido)-3-methylbutanamido)-5-oxopentanoate] | 5.30 fold increase | 5.30 fold | 0.5 µM | most potent immunomodulator in the series | moderately enhanced | 0.34 µM (≈ 0.44 µg/mL) | 0.32 µM (≈ 0.414 µg/mL) | 0.33 µM (≈ 0.427 µg/mL) | 3.31 fold increase | comparable efficiency to MDP | – | –
– | COc1cc(/C=C/C(=O)NCC(=O)N[C@H](C(=O)N[C@H](CCC(=O)OC2CCCC2)C(=O)OC2CCCC2)C(C)C)ccc1OC(=O)CCCCCNC(=O)CSc1nc2c([nH]c3ccccc32)c(=O)n1-c1ccccc1 [Compound 2, reference compound] | – | – | – | – | – | 0.26 µM (≈ 0.276 µg/mL) | 0.44 µM (≈ 0.467 µg/mL) | 0.35 µM (≈ 0.372 µg/mL) | – | – | inactivity; also recorded: lacked immunostimulatory activity | –
3.06 ^d fold increase | CCOC(=O)C(CCC(=O)O)NC(=O)C(NC(=O)CNC(=O)C=Cc1ccc(O)c(OC)c1)C(C)C (stereo not shown) [Compound 3, reference compound] | – | – | – | – | – | – | – | – | – | – | – | 414.8 ^c μM

— article PMC12409580, “Modulating Receptor Activity, Immune Response, and Kinetic Solubility: The Impact of Linker Chemistry in Conjugated NOD2/TLR4 Agonists” (ACS Omega, 2025)
